In US20220220041A1, “USE OF UREA AS AN ANTIMICROBIAL ADDITIVE IN AN AQUEOUS SUSPENSION” (Omya International AG, priority 2019, published 2022):

Tests used:
[1] = tested on: Escherichia coli (DSMZ 46295); assay: Example 2 preservation efficacy: H60 slurry with 61 wt.-% urea solution, E. coli inoculum, TVC; assay type: cell-based
Protocol: (§1) All quoted bacterial counts (Total viable counts (TVC) values), unless otherwise indicated, are given in cfu/ml and determined after at least 2 days following plate-out and incubation at 30° C. and in accordance with the counting method described in “Bestimmung von aerobe mesophilen Keimen”, Schweizerisches Lebensmittelbuch, chapter 56, section 7.01, edition of 1985, revised version of 1988.
(§2) Unless otherwise stated, per tryptic soy agar plate (TSA, prepared using BD 236950) 0.1 ml of a solution or suspension is plated. Counts from 10000 cfu/ml to 99999 cfu/ml are reported as >1E4 cfu/ml. Counts from 100000 cfu/ml to 999999 cfu/ml are reported as >1E5 cfu/ml. Counts above 1000000 cfu/ml are reported as >1E6 cfu/ml.
For the preparation of inoculum with a single bacterial species (for example Escherichia coli (DSMZ 46295) or Pseudomonas putida), bacteria are spread onto Tryptic soy broth agar (BD, 236950) by dilution streaking followed by incubation at 30° C. for at least 24 h until colonies appear. Overnight cultures are generated by inoculation of 3 ml Tryptic soy broth (Fluka 22092) with a single colony followed incubation with agitation at […] at 30° C. for 24 h.
(§3) 50 g sterile slurry H60 with a solid content of 76.5 wt.-%, based on the total weight of the H60 slurry is supplemented with different amounts of 61 wt.-% urea solution or water. The samples are then inoculated with 1 ml non-sterile calcium carbonate slurry (H60), 1 ml non-sterile calcium carbonate slurry (H90), 0.02 ml overnight culture of Escherichia coli (DSMZ 46295) and 0.02 ml overnight culture of Pseudomonas putida. The control samples are not inoculated. Samples are incubated at 30° C. and the TVC and pH are determined at various time points (0 day, 1 day, 4, days, 8 days, 9 days and/or 13 days).

[2] = tested on: non-sterile calcium carbonate slurry (H90), environmental bacteria; assay: Example 3 preservation efficacy: H60 slurry with industrial grade urea solution, non-sterile H90 inoculum, TVC; assay type: cell-based; conditions: industrial grade urea 5.5%, calcium carbonate 69%, water 25.5% w/w, 30° C.
Protocol: as §1, §2
(§4) Non-sterile slurries (H60 or H90) contain contamination with environmental bacteria at a TVC>100000 cfu/ml. The contamination originates spontaneously and a bacterial burden of at least>100000 cfu/ml is confirmed prior use as inoculum by TVC. The following bacterial species are known to occur, as identified by 16S RNA sequencing or MALDI-TOF-MS analysis: Rhizobium radiobacter, Brevundimonas intermedia, Brevundimonas diminiuta, Sphingomonas sp., Pseudomonas stutzeri, Pseudomonas sp., Comomonas aquatic.
50 g sterile calcium carbonate slurry (H60) with a solid content of 77.3 wt.-%, based on the total weight of the H60 slurry is supplemented with industrial grade 50% (w/w) urea solution (Yara Canda Inc.) or water to different final concentrations. The industrial grade contained natural resident (i.e. bacteria in a non-growing state) bacteria. The bacterial of the industrial urea burden is 5 cfu/3 ml as determined by TVC. The species are identified by characterizing the grown colonies from the TVC by 16 S RNA sequencing, known to the person skilled in the art.
The samples are further artificially inoculated with 1 ml non-sterile calcium carbonate slurry (H60), 1 ml non-sterile calcium carbonate slurry (H90), 0.02 ml overnight culture of Escherichia coli (DSMZ 46295) and 0.02 ml overnight culture Pseudomonas putida. The control sample are not inoculated. […]

[3] = tested on: non-sterile calcium carbonate slurry (H90), environmental bacteria; assay: Example 1 preservation efficacy: sterile H90 slurry with dry urea, up to three inoculations with non-sterile H90 slurry, TVC; assay type: cell-based; conditions: for TVC cfu/ml 2nd Inoculation / TVC cfu/ml 3rd Inoculation / TVC cfu/ml 1st Inoculation: calcium carbonate 75%, water 25% w/w, H90 slurry; for TVC cfu/ml 1st Inoculation: 3 days at 30° C. after inoculation
Protocol: as §1, §2, §4
50 g sterile slurry H90 with a solid content of 75 wt.-%, based on the total weight of the H90 slurry is supplemented with different concentrations of dry urea. The samples are then stored for 3 days at 30° C. After the storage, the samples are inoculated with 1 ml non-sterile calcium carbonate slurry (H90), incubated for 3 days at 30° C. and the TVC is determined. Samples are further inoculated with 1 ml non-sterile calcium carbonate slurry (H90). Up to three inoculations are performed.

[4] = tested on: total viable bacteria, not inoculated; assay: Example 2 preservation efficacy: H60 slurry with 61 wt.-% urea solution, control samples not inoculated, TVC; assay type: cell-based; conditions: inoculum none, 30° C.
Protocol: as §1, §2, §3

[5] = pH measurement of the suspension; assay type: physicochemical; conditions: 30° C.; for pH Day 8: Table 2; for pH Day 4: Table 3; for pH Day 11: Table 5; for pH Day 16: industrial grade urea 5.5%, calcium carbonate 69%, water 25.5% w/w
Protocol: The pH of a suspension is measured at 25° C. using a Mettler Toledo Seven Easy pH meter and a Mettler Toledo InLab® Expert Pro pH electrode. A three point calibration (according to the segment method) of the instrument is first made using commercially available buffer solutions having pH values of 4, 7 and 10 at 20° C. (from Aldrich). The reported pH values are the endpoint values detected by the instrument (the endpoint is when the measured signal differs by less than 0.1 mV from the average over the last 6 s).

[6] = Table 2, urea 2.75%, calcium carbonate 73.1%, water 24.15% w/w, inoculum E. coli, 30° C.
[7] = Table 2, urea 7.6%, calcium carbonate 67.1%, water 25.3% w/w, inoculum E. coli, 30° C.
[8] = Table 3, urea 0.65%, calcium carbonate 75.7%, water 23.65% w/w, inoculum E. coli, 30° C.
[9] = Table 3, urea 1.28%, calcium carbonate 74.9%, water 23.82% w/w, inoculum E. coli, 30° C.
[10] = Table 3, urea 2.75%, calcium carbonate 73.1%, water 24.15% w/w, inoculum E. coli, 30° C.
[11] = Table 2, urea 2.75%, calcium carbonate 73.1%, water 24.15% w/w
[12] = Table 2, urea 7.6%, calcium carbonate 67.1%, water 25.3% w/w
[13] = Table 3, urea 1.28%, calcium carbonate 74.9%, water 23.82% w/w
[14] = Table 3, urea 2.75%, calcium carbonate 73.1%, water 24.15% w/w
[15] = urea 2.75%, calcium carbonate 73.1%, water 24.15% w/w, inoculum none

NC(N)=O [urea]
TVC cfu/ml Day 1 [1, 6]: <100 cfu/ml | TVC cfu/ml Day 4 [1, 6]: <100 cfu/ml | TVC cfu/ml Day 8 [1, 6]: 500 cfu/ml | TVC cfu/ml Day 13 [1, 6]: <100 cfu/ml | TVC cfu/ml Day 1 [1, 7]: <100 cfu/ml | TVC cfu/ml Day 4 [1, 7]: <100 cfu/ml | TVC cfu/ml Day 8 [1, 7]: <100 cfu/ml | TVC cfu/ml Day 13 [1, 7]: 100 cfu/ml | TVC cfu/ml Day 1 [1, 8]: >1E5 cfu/ml | TVC cfu/ml Day 4 [1, 8]: >1E5 cfu/ml | TVC cfu/ml Day 1 [1, 9]: <100 cfu/ml | TVC cfu/ml Day 4 [1, 9]: <100 cfu/ml | TVC cfu/ml Day 1 [1, 10]: <100 cfu/ml | TVC cfu/ml Day 4 [1, 10]: <100 cfu/ml | TVC cfu/ml Day 9 [1, 10]: <100 cfu/ml | preservation of calcium carbonate slurries from bacterial growth, duration ([1]; high urea concentrations, summary of tables 2 and 3, all inocula): at least 13 days | TVC cfu/ml Day 1 [2]: >1E4 cfu/ml | TVC cfu/ml Day 4 [2]: 300 cfu/ml | TVC cfu/ml Day 8 [2]: <100 cfu/ml | TVC cfu/ml Day 11 [2]: <100 cfu/ml | TVC cfu/ml Day 13 [2]: <100 cfu/ml | preservation of calcium carbonate slurries from bacterial growth ([3]; low urea concentrations (table 1: 0.025-0.075%)): not able to preserve | TVC cfu/ml 2nd Inoculation ([3]; urea 0.025%): >1E6 cfu/ml | TVC cfu/ml 3rd Inoculation ([3]; urea 0.025%): >1E6 cfu/ml | TVC cfu/ml 1st Inoculation ([3]; urea 0.025%): >1E6 cfu/ml | TVC cfu/ml 2nd Inoculation ([3]; urea 0.05%): >1E6 cfu/ml | TVC cfu/ml 3rd Inoculation ([3]; urea 0.05%): >1E6 cfu/ml | TVC cfu/ml 1st Inoculation ([3]; urea 0.05%): >1E6 cfu/ml | TVC cfu/ml 2nd Inoculation ([3]; urea 0.075%): >1E6 cfu/ml | TVC cfu/ml 3rd Inoculation ([3]; urea 0.075%): >1E6 cfu/ml | TVC cfu/ml 1st Inoculation ([3]; urea 0.075%): >1E6 cfu/ml | TVC cfu/ml Day 4 [4, 11]: <100 cfu/ml | TVC cfu/ml Day 8 [4, 11]: <100 cfu/ml | TVC cfu/ml Day 13 [4, 11]: <100 cfu/ml | TVC cfu/ml Day 1 ([4]; Table 2, urea 2.75%, calcium carbonate 73.1%, water 24.15% w/w, detection limit 100 cfu/ml): <100 cfu/ml | TVC cfu/ml Day 1 [4, 12]: <100 cfu/ml | TVC cfu/ml Day 4 [4, 12]: <100 cfu/ml | TVC cfu/ml Day 8 [4, 12]: <100 cfu/ml | TVC cfu/ml Day 13 [4, 12]: <100 cfu/ml | TVC cfu/ml Day 4 ([4]; Table 3, urea 0.65%, calcium carbonate 75.7%, water 23.65% w/w): <100 cfu/ml | TVC cfu/ml Day 1 ([4]; Table 3, urea 0.65%, calcium carbonate 75.7%, water 23.65% w/w, detection limit 100 cfu/ml): <100 cfu/ml | TVC cfu/ml Day 1 [4, 13]: <100 cfu/ml | TVC cfu/ml Day 4 [4, 13]: <100 cfu/ml | TVC cfu/ml Day 1 [4, 14]: <100 cfu/ml | TVC cfu/ml Day 4 [4, 14]: <100 cfu/ml | TVC cfu/ml Day 9 [4, 14]: <100 cfu/ml | pH Day 8 [5, 15]: 9.16 | pH Day 8 ([5]; urea 7.6%, calcium carbonate 67.1%, water 25.3% w/w, inoculum none): 9.25 | pH Day 4 ([5]; urea 0.65%, calcium carbonate 75.7%, water 23.65% w/w, inoculum none): 9.06 | pH Day 4 ([5]; urea 1.28%, calcium carbonate 74.9%, water 23.82% w/w, inoculum none): 9.05 | pH Day 4 [5, 15]: 9.11 | pH Day 11 ([5]; urea 0.40%, calcium carbonate 75.61%, water 23.99% w/w, inoculum H60): 9.05 | pH Day 11 ([5]; urea 1.10%, calcium carbonate 75.48%, water 23.42% w/w, inoculum H60): 9.25 | pH Day 11 ([5]; urea 2.80%, calcium carbonate 75.21%, water 21.98% w/w, inoculum H60): 9.10 | pH Day 16 ([5]; inoculum E. coli): 9.02 | pH Day 16 ([5]; inoculum H60): 9.00 | pH Day 16 ([5]; inoculum H90): 8.97 | pH Day 16 ([5]; inoculum P. putida): 9.04 | pH Day 16 ([5]; inoculum none): 9.02
